According to patent publication US20160108381A1, “DNA POLYMERASES AND MUTANTS THEREOF” (LIFE TECHNOLOGIES CORPORATION, priority 2001, published 2016):

Legend:
[1] = biological target: T1, Clostridium stercorarium DNA polymerase, N-terminal His6 tag (Cst-His), SEQ ID NO:14 (Thermoclostridium stercorarium, UniProt L7VMI6); experiment: Steady-state kinetics, DNA- and RNA-dependent polymerase activity
T1 sequence (L7VMI6 with tags, fused parts or gaps): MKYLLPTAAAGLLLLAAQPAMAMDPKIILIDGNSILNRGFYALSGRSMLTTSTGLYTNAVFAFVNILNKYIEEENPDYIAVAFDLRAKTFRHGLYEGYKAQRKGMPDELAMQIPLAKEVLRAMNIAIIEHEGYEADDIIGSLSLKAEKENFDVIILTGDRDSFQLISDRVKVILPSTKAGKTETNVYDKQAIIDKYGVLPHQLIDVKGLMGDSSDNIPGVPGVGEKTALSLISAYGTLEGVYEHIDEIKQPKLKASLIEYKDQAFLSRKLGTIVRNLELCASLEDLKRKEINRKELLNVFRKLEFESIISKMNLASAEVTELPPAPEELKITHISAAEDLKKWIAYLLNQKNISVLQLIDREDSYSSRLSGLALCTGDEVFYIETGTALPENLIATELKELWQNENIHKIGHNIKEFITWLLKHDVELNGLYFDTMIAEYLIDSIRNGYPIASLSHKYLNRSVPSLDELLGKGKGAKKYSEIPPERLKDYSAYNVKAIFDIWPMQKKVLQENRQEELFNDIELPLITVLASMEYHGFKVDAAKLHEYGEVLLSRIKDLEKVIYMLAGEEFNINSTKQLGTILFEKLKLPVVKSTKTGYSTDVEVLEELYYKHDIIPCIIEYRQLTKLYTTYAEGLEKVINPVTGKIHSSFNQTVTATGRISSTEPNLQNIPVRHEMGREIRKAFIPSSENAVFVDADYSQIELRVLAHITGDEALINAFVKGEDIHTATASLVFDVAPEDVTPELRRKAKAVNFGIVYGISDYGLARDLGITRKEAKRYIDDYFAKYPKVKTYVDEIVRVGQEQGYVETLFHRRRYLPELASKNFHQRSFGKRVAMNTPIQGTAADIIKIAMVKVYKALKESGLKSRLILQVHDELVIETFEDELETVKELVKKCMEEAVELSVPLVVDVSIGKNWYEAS
Text: (§1) Subcloning of genes for Cst and Cth DNA polymerases. In order to improve expression and simplify purification of Cst and Cth DNA polymerase, the genes were subcloned downstream of a T7 promoter and an amino-terminal His6 tag sequence was introduced using Gateway cloning technology (Invitrogen Corporation, Carlsbad, Calif.). The sequence of the DNA oligonucleotide used at the 5′ end of the Cst gene was: 5′-[…] ATAGAC 3′ (SEQ ID NO:37). The sequence of the DNA oligonucleotide used at the 5′ end of the Cth gene was: 5′-[…] […]-3′ (SEQ ID NO:38). The sequence of the DNA oligonucleotide used at the 3′ end of each gene was the same: 5′-[…] […] 3′ (SEQ ID NO:39). Purified pET26B plasmid DNA (Novagen Inc., Madison, Wis.) bearing the gene for Cst or Cth DNA polymerase was amplified by PCR utilizing the primers listed above and Platinum Taq HiFi DNA polymerase (Invitrogen Corporation, Carlsbad, Calif.). PCR products purified by agarose gel electrophoresis were cloned into Gateway vector pDON21 and transferred by recombination into vector pDEST17. […] Each final recombinant plasmid was transformed into the E. coli expression host BL21-AI (Invitrogen Corporation, Carlsbad, Calif.).
(§2) Purification of Cst-His and Cth-His DNA polymerases. E. coli cells (BL21AI) bearing the plasmid pDEST17 with the gene for Cst-His or Cth-His DNA polymerase were grown in 2.8-1 Fembach flasks in LB broth containing 50 μg/ml ampicillin at 37° C. After the culture reached an A590 of 1.0, expression of DNA polymerase was induced by the addition of 0.2% arabinose for 3 hr. Cells were harvested by centrifugation and stored at −70° C.
(§3) Steady-state kinetic measurements.
(§4) The assays were conducted in the presence of 1.5 mM MgCl2 at 55° C. for all enzymes except the Caldibacillus cellulovorans CompA.2 enzyme where 2 mM MgCl2 and 45° C. were used.

[2] = biological target: T2, Clostridium thermosulfurogenes DNA polymerase, N-terminal His6 tag (Cth-His), SEQ ID NO:15 (Thermoanaerobacterium thermosulfurigenes, UniProt Q6X9R5); experiment: as above
T2 sequence (Q6X9R5 with tags, fused parts or gaps): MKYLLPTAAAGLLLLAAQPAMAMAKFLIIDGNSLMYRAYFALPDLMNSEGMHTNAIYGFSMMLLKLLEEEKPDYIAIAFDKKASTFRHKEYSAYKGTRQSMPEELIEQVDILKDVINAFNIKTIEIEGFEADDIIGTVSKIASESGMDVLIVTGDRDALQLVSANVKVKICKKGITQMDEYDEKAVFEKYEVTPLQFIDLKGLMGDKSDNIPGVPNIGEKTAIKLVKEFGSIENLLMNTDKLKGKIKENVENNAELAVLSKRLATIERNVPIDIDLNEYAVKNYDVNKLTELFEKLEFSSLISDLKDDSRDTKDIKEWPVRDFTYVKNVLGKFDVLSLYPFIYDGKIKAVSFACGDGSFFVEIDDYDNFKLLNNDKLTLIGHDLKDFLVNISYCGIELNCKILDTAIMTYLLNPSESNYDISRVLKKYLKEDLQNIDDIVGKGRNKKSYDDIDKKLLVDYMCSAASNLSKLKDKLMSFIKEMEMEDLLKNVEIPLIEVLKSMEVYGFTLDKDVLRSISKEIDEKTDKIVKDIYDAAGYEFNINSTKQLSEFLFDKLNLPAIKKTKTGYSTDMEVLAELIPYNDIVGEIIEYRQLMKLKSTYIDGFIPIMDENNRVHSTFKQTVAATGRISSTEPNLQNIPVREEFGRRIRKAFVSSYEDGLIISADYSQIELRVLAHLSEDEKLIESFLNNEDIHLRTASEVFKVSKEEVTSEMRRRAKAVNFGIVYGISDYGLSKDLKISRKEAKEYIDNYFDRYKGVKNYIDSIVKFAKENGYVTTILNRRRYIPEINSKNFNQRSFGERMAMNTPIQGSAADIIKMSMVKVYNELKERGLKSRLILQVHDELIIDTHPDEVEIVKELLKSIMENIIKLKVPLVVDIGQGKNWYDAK
Text: as §1, §2, §3, §4

[3] = Table 34, RNA template, 2 mM MgCl2, 45 °C per footnote
[4] = read-out: Km RNA (dTTP), Table 34, RNA template, 2 mM MgCl2, 45 °C per footnote

With `Cc1cn([C@H]2C[C@H](O)[C@@H](COP(=O)(O)OP(=O)(O)OP(=O)(O)O)O2)c(=O)[nH]c1=O` [dTTP] the “Kcat RNA (dTTP)” value [1, 3] was 19.2 s⁻¹, the “kCAT Ratio (RNA/DNA)” value ([1]; Table 40, dTTP, 55 °C) was 2.2 and the Km [1, 4] was 76 µM. For the same compound, the “Kcat RNA (dTTP)” value [2, 3] was 0.94 s⁻¹, the “kCAT Ratio (RNA/DNA)” value ([2]; Table 40, dTTP, 55 °C) was 0.57 and the Km [2, 4] was 68 µM.
